# Laboratory results as given in patent publication US20150031668A1, “CHROMAN DERIVATIVES AS TRPM8 INHIBITORS” (AMGEN INC., priority 2013, published 2015).
# Where a name gives a salt, the structure may show the parent alone.
# Molecular target: T1, human TRPM8 (Homo sapiens, UniProt Q7Z2W7)
# T1 construct: expressed in transfected cells; host or cells: Chinese hamster ovary (CHO) cells, T-REx tetracycline-inducible expression system (Invitrogen); co-transfected with pcDNA3.1 aequorin
# Assay: Luminescence readout assay for measuring intracellular calcium (aequorin, CHO cells expressing human TRPM8; icilin, L-menthol or cold activation)
# Format: cell-based
# Settings: CHO cells expressing human TRPM8, icilin activation (1 μM), aequorin luminescence; read-out: hTRPM8 IC50
# Method in brief: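 Activation was by 1 μM icilin, 100 μM L-menthol (test compound 2.5 min ahead) or cold buffer below 10° C (compound 1 min ahead). Calcium rise measured as aequorin luminescence in CHO cells with tetracycline-inducible human TRPM8.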
# T1 sequence (Q7Z2W7 whole entry): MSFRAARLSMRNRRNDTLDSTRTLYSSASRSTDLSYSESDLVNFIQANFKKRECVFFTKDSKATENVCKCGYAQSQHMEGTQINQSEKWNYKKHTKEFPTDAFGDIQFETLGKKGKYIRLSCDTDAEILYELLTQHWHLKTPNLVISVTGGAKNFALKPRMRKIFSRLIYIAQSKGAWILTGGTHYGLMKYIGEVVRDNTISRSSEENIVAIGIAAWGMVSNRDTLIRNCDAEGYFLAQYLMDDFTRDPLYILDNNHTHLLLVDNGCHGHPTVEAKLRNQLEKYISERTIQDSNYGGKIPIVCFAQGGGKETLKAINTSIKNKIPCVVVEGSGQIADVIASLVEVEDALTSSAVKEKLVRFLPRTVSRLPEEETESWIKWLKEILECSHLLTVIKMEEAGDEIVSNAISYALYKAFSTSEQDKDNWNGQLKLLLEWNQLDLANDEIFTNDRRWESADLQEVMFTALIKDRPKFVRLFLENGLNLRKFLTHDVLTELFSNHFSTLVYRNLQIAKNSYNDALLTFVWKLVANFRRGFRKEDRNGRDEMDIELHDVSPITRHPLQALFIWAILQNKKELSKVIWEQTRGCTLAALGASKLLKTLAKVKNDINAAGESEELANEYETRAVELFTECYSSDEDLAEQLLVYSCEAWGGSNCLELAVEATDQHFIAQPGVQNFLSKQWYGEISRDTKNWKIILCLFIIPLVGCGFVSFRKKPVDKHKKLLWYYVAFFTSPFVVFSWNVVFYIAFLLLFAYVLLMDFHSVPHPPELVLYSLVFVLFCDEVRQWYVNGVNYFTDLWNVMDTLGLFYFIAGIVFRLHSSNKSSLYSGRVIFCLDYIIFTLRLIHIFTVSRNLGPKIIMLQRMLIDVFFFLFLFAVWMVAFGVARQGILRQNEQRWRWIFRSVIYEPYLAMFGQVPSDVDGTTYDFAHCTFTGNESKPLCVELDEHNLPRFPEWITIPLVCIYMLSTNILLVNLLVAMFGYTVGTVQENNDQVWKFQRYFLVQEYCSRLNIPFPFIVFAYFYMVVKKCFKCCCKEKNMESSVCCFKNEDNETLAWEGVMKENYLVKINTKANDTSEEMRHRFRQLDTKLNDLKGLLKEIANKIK
row,SMILES,IC50 [nM]
1,"CC(=O)Nc1ccc(-c2ccc([C@@]3(NC(=O)c4ccc(F)cc4)CCOc4cccnc43)cc2)cc1 [Example 121, (S)-N-(4-(4′-acetamido-[1,1′-biphenyl]-4-yl)-3,4-dihydro-2H-pyrano[3,2-b]pyridin-4-yl)-4-fluorobenzamide]",1250
2,"O=C(N[C@]1(c2ccc(OC(F)(F)F)cc2)CCOc2cccnc21)c1cnns1 [Example 214, (S)-N-(4-(4-(trifluoromethoxy)phenyl)-3,4-dihydro-2H-pyrano[3,2-b]pyridin-4-yl)-1,2,3-thiadiazole-5-carboxamide formate]",190
3,"O=C(N[C@]1(c2ccc(-c3cncnc3)cc2)CCOc2cccnc21)c1ccc(F)cc1 [Example 124, (S)-4-fluoro-N-(4-(4-(pyrimidin-5-yl)phenyl)-3,4-dihydro-2H-pyrano[3,2-b]pyridin-4-yl)benzamide]",1410
4,"O=S(=O)(N[C@]1(c2ccc(OC(F)(F)F)c(F)c2)CCOc2cccnc21)c1cccnc1 [Example 77, (S)—N-(4-(3-fluoro-4-(trifluoromethoxy)phenyl)-3,4-dihydro-2H-pyrano[3,2-b]pyridin-4-yl)pyridine-3-sulfonamide 2,2,2-trifluoroacetate]",1340
5,"O=C(N[C@]1(c2ccc(C(F)(F)F)cc2)CCOc2cccnc21)c1cccnc1 [Example 48, (S)-N-(4-(4-(trifluoromethyl)phenyl)-3,4-dihydro-2H-pyrano[3,2-b]pyridin-4-yl)nicotinamide]",481
6,"COC(=O)c1ccc(S(=O)(=O)N[C@]2(c3ccc(OC(F)(F)F)c(F)c3)CCOc3cccnc32)cc1 [Example 286, (S)-methyl 4-(N-(4-(3-fluoro-4-(trifluoromethoxy)phenyl)-3,4-dihydro-2H-pyrano[3,2-b]pyridin-4-yl)sulfamoyl)benzoate]",754
7,"O=C(N[C@]1(c2ccc(-c3ccc(N4CCOCC4)cc3)cc2)CCOc2cccnc21)c1ccc(F)cc1 [Example 133, (S)-4-fluoro-N-(4-(4′-morpholino-[1,1′-biphenyl]-4-yl)-3,4-dihydro-2H-pyrano[3,2-b]pyridin-4-yl)benzamide]",156
8,"O=C(O)c1cnc(C(=O)N[C@]2(c3ccc(OC(F)(F)F)c(F)c3)CCOc3cccnc32)cn1 [Example 177, (S)-5-((4-(3-fluoro-4-(trifluoromethoxy)phenyl)-3,4-dihydro-2H-pyrano[3,2-b]pyridin-4-yl)carbamoyl) pyrazine-2-carboxylic acid]",209
9,"O=C(Nc1cccnc1)NC1(c2ccc(C(F)(F)F)cc2)CCOc2ccccc21 (stereo not drawn) [Example 70, 1-(pyridin-3-yl)-3-(4-(4-(trifluoromethyl)phenyl)chroman-4-yl)urea]",1350
10,"O=C(O)c1c[nH]c(C(=O)N[C@]2(c3ccc(OC(F)(F)F)c(F)c3)CCOc3cccnc32)c1 [Example 334, (S)-5-((4-(3-fluoro-4-(trifluoromethoxy)phenyl)-3,4-dihydro-2H-pyrano[3,2-b]pyridin-4-yl)carbamoyl)-1H-pyrrole-3-carboxylic acid]",1010
11,"O=C(N[C@]1(c2ccc(C(F)(F)F)cc2)CCOc2cccnc21)c1ccc(F)cc1 (single isomer, unassigned) [Example 2]",86
12,"O=C(N[C@]1(c2ccc3ccccc3c2)CCOc2cccnc21)c1ccc(=O)[nH]c1 [Example 81, (S)-N-(4-(naphthalen-2-yl)-3,4-dihydro-2H-pyrano[3,2-b]pyridin-4-yl)-6-oxo-1,6-dihydropyridine-3-carboxamide]",124
13,"O=C(N[C@]1(c2ccc(C(F)(F)F)cc2)CCOc2ccccc21)c1ccccc1 (single isomer, unassigned) [Example 28]",1660
14,"COc1ccc(C(=O)N[C@]2(c3ccc(C(F)(F)F)cc3)CCOc3cccnc32)nn1 [Example 47, (S)-6-methoxy-N-(4-(4-(trifluoromethyl)phenyl)-3,4-dihydro-2H-pyrano[3,2-b]pyridin-4-yl)pyridazine-3-carboxamide]",82

# The next compounds have a lower IC50 than those just listed; values first:
row,IC50 [nM],SMILES
1,36,"Cn1cc2cccc(C(=O)N[C@]3(c4ccc(OC(F)(F)F)cc4)CCOc4cccnc43)c2n1 [Example 266, (S)-2-methyl-N-(4-(4-(trifluoromethoxy)phenyl)-3,4-dihydro-2H-pyrano[3,2-b]pyridin-4-yl)-2H-indazole-7-carboxamide formate]"
2,66,"COc1c(C(=O)O)cccc1C(=O)N[C@]1(c2ccc(OC(F)(F)F)c(F)c2)CCOc2cccnc21 [Example 186, (S)-3-((4-(3-fluoro-4-(trifluoromethoxy)phenyl)-3,4-dihydro-2H-pyrano[3,2-b]pyridin-4-yl)carbamoyl)-2-methoxybenzoic acid]"
3,19,"O=C(Nc1cccnc1)N[C@]1(c2ccc(C(F)(F)F)cc2)CCOc2cccnc21 [Example 73, (S)-1-(pyridin-3-yl)-3-(4-(4-(trifluoromethyl)phenyl)-3,4-dihydro-2H-pyrano[3,2-b]pyridin-4-yl)urea]"
4,4,"O=C(N[C@]1(c2ccc(OC(F)(F)F)cc2)CCOc2cccnc21)c1ccc2ncccc2c1 [Example 253, (S)-N-(4-(4-(trifluoromethoxy)phenyl)-3,4-dihydro-2H-pyrano[3,2-b]pyridin-4-yl)quinoline-6-carboxamide formate]"
5,38,"O=C(NC1(c2ccc(OC(F)(F)F)cc2)CCOc2cccnc21)c1ccccc1 (stereo not drawn) [Example 9, N-(4-(4-(trifluoromethoxy)phenyl)-3,4-dihydro-2H-pyrano[3,2-b]pyridin-4-yl)benzamide]"
6,19,"Cc1cc(C(=O)N[C@]2(c3ccc(OC(F)(F)F)c(F)c3)CCOc3cccnc32)ccc1Br [Example 167, (S)-4-bromo-N-(4-(3-fluoro-4-(trifluoromethoxy)phenyl)-3,4-dihydro-2H-pyrano [3,2-b]pyridin-4-yl)-3-methylbenzamide]"
7,21,"COC(=O)c1ccnc(C(=O)N[C@]2(c3ccc(OC(F)(F)F)c(F)c3)CCOc3cccnc32)c1 [Example 201, (S)-methyl 2-((4-(3-fluoro-4-(trifluoromethoxy)phenyl)-3,4-dihydro-2H-pyrano[3,2-b]pyridin-4-yl)carbamoyl) isonicotinate]"
8,3,"CNc1cc(C(=O)N[C@]2(c3ccc(OC(F)(F)F)c(F)c3)CCOc3cccnc32)ccc1C(=O)O [Example 294, (S)-4-((4-(3-fluoro-4-(trifluoromethoxy)phenyl)-3,4-dihydro-2H-pyrano[3,2-b]pyridin-4-yl)carbamoyl)-2-(methylamino)benzoic acid]"
9,10,"Cc1cc(C(=O)N[C@]2(c3ccc(OC(F)(F)F)c(F)c3)CCOc3cccnc32)ncc1Br [Example 166, (S)-5-bromo-N-(4-(3-fluoro-4-(trifluoromethoxy)phenyl)-3,4-dihydro-2H-pyrano[3,2-b]pyridin-4-yl)-4-methylpicolin amide]"
10,19,"COC(=O)c1ccccc1NC(=O)N[C@]1(c2ccc(OC(F)(F)F)c(F)c2)CCOc2cccnc21 [Example 86, (S)-methyl 2-(3-(4-(3-fluoro-4-(trifluoromethoxy)phenyl)-3,4-dihydro-2H-pyrano[3,2-b]pyridin-4-yl)ureido)benzoate]"
11,46,"O=C(NC1(c2ccc(C(F)(F)F)nc2)CCOc2cccnc21)c1ccc2oc(=O)[nH]c2c1 (stereo not drawn) [Example 27, 2-oxo-N-(4-(6-(trifluoromethyl)pyridin-3-yl)-3,4-dihydro-2H-pyrano[3,2-b]pyridin-4-yl)-2,3-dihydrobenzo[d]oxazole-5-carboxamide]"
12,68,"COc1ccc2c(c1)C=C(C(=O)N[C@]1(c3ccc(OC(F)(F)F)cc3)CCOc3cccnc31)CO2 [Example 278, (S)-6-methoxy-N-(4-(4-(trifluoromethoxy)phenyl)-3,4-dihydro-2H-pyrano[3,2-b]pyridin-4-yl)-2H-chromene-3-carboxamide fonnate]"
13,16,"O=C(N[C@]1(c2ccc(OC(F)(F)F)c(F)c2)CCOc2cccnc21)c1ccc2nccn2c1 [Example 52, (S)-N-(4-(3-fluoro-4-(trifluoromethoxy)phenyl)-3,4-dihydro-2H-pyrano[3,2-b]pyridin-4-yl)imidazo[1,2-a]pyridine-6-carboxamide]"
14,25,"O=C(N[C@]1(c2ccc(OC(F)(F)F)cc2)CCOc2cccnc21)c1ccc2cccnc2c1 [Example 254, (S)-N-(4-(4-(trifluoromethoxy)phenyl)-3,4-dihydro-2H-pyrano[3,2-b]pyridin-4-yl)quinoline-7-carboxamide fonnate]"
15,22,"O=C(N[C@]1(c2ccc(OC(F)(F)F)c(F)c2)CCOc2cccnc21)c1ccc(F)cn1 [Example 55, (S)-5-fluoro-N-(4-(3-fluoro-4-(trifluoromethoxy)phenyl)-3,4-dihydro-2H-pyrano[3,2-b]pyridin-4-yl)picolinamide]"
16,10,"O=C(N[C@]1(c2ccc(OC(F)(F)F)cc2)CCOc2cccnc21)c1ccnc2[nH]ccc12 [Example 218, (S)-N-(4-(4-(trifluoromethoxy)phenyl)-3,4-dihydro-2H-pyrano[3,2-b]pyridin-4-yl)-1H-pyrrolo[2,3-b] pyridine-4-carboxamide formate]"
17,35,"O=C(N[C@]1(c2ccc(OC(F)(F)F)c(F)c2)CCOc2cccnc21)c1cscn1 [Example 198, (S)-N-(4-(3-fluoro-4-(trifluoromethoxy)phenyl)-3,4-dihydro-2H-pyrano[3,2-b]pyridin-4-yl) thiazole-4-carboxamide]"
18,4,"O=C(N[C@]1(c2ccc(OC(F)(F)F)c(F)c2)CCOc2cccnc21)c1ccc(C(=O)O)c(NC2CC2)c1 [Example 302, (S)-2-(cyclopropylamino)-4-((4-(3-fluoro-4-(trifluoromethoxy)phenyl)-3,4-dihydro-2H-pyrano[3,2-b]pyridin-4-yl)carbamoyl)benzoic acid]"
19,11,"O=C(N[C@]1(c2ccc(OC(F)(F)F)c(F)c2)CCOc2cccnc21)c1ccco1 [Example 308, (S)—N-(4-(3-fluoro-4-(trifluoromethoxy)phenyl)-3,4-dihydro-2H-pyrano[3,2-b]pyridin-4-yl)furan-2-carboxamide]"
